Results taken from publication PMC9414551 (Pharmaceuticals, 2022).
Where a name gives a salt, the structure may show the parent alone.

What was measured:
NR1-2C NMDAR [1] = biological target: T1, NR1-2C NMDAR (Homo sapiens, UniProt Q05586+Q14957); assay: cell-based; type: cell-based; set-up: host or cells: CHO (CHO-hN1-h2C), tetracycline-induced expression; details: for remaining activity at 0.049 µM / remaining activity at 0.195 µM / remaining activity at 0.781 µM / remaining activity at 3.1 µM / remaining activity at 12.5 µM / remaining activity at 50 µM: read-out: L-glutamate Max. (maximal asymptote) in the presence of test item, GluN1/GluN2C; for remaining activity at 0.049 µM: test item 0.049 μM; for remaining activity at 0.195 µM: test item 0.195 μM; for remaining activity at 0.781 µM: test item 0.781 μM; for remaining activity at 3.1 µM: test item 3.1 μM; for remaining activity at 12.5 µM: test item 12.5 μM; for remaining activity at 50 µM: test item 50 μM
NR1-2D NMDAR [2] = biological target: T2, NR1-2D NMDAR (Homo sapiens, UniProt O15399+Q05586); assay: FLIPR Ca2+ assay, blocker concentration-response curve; type: cell-based; set-up: host or cells: CHO (CHO-hN1-h2D), tetracycline-induced expression; details: for Min. (%), minimal % Ca2+ influx in the presence of 100 μM blocker: 10 µM L-glutamate, no Mg2+; for Slope: logistic fit of blocker CRC
From the text: (§1) CHO cell lines stably over-expressing heterodimeric NMDARs composed of human NR1 and 2 subunits were generated by Aptuit, an Evotec company (Verona, Italy). Cell line details are available at ExPASy Cellosaurus database. Research Resource Identifiers (RRIDs) are CVCL_B3TY, CVCL_B3TZ, CVCL_B3U0, and CVCL_B3U1 for CHO-hNR1-h2A, CHO-hNR1-h2B, CHO-hN1-h2C, and CHO-hN1-h2D, respectively. Protein accession numbers were NP_015566, NP_000824, NP_000825, NP_000826, and NP_000827 for NR1, 2A, 2B, 2C, and 2D, respectively. […] The four different heterodimeric NMDARs studied were NR1-2A, NR1-2B, NR1-2C, and NR1-2D. Cell lines were cultured for a maximum of 75 passages.
(§2) FLIPR assay allowed for indirect measurement of intracellular Ca^2+ concentration by means of a Ca^2+-sensitive fluorescent dye (Fluo-4) using the FLIPR instrument (Molecular Devices, San Jose, CA, USA). For these assays, 40 mM stock solutions of the test items were prepared in 100% dimethyl sulfoxide (DMSO), while glutamate and glycine 4 mM stock solutions were prepared in water. 384-well compound plates containing 400 × concentrated test item, glutamate, and glycine were prepared using Labcyte Echo acoustic dispensing system and stored at −20 °C until the day of the experiment.
(§3) Glycine 10 μM was always included in every test item addition.
(§4) Glycine was kept at a constant concentration of 10 μM during experiments.

NR1-2B NMDAR [3] = biological target: T3, NR1-2B NMDAR (Homo sapiens, UniProt Q05586+Q13224); assay: cell-based; type: cell-based; set-up: host or cells: CHO (CHO-hNR1-h2B), constitutive expression; details: for remaining activity at 0.049 µM / remaining activity at 0.195 µM / remaining activity at 0.781 µM / remaining activity at 3.1 µM / remaining activity at 12.5 µM / remaining activity at 50 µM: read-out: L-glutamate Max. (maximal asymptote) in the presence of test item, GluN1/GluN2B; for remaining activity at 0.049 µM: test item 0.049 μM; for remaining activity at 0.195 µM: test item 0.195 μM; for remaining activity at 0.781 µM: test item 0.781 μM; for remaining activity at 3.1 µM: test item 3.1 μM; for remaining activity at 12.5 µM: test item 12.5 μM; for remaining activity at 50 µM: test item 50 μM
NR1-2C NMDAR [4] = biological target: T1, NR1-2C NMDAR; assay: FLIPR Ca2+ assay, blocker concentration-response curve; type: cell-based; set-up: host or cells: CHO (CHO-hN1-h2C), tetracycline-induced expression; details: for Min. (%), minimal % Ca2+ influx in the presence of 100 μM blocker: 10 µM L-glutamate, no Mg2+; for Slope: logistic fit of blocker CRC
From the text: as §1, §2, §3, §4

NR1-2D NMDAR [5] = biological target: T2, NR1-2D NMDAR; assay: cell-based; type: cell-based; set-up: host or cells: CHO (CHO-hN1-h2D), tetracycline-induced expression; details: for remaining activity at 0.049 µM / remaining activity at 0.195 µM / remaining activity at 0.781 µM / remaining activity at 3.1 µM / remaining activity at 12.5 µM / remaining activity at 50 µM: read-out: L-glutamate Max. (maximal asymptote) in the presence of test item, GluN1/GluN2D; for remaining activity at 0.049 µM: test item 0.049 μM; for remaining activity at 0.195 µM: test item 0.195 μM; for remaining activity at 0.781 µM: test item 0.781 μM; for remaining activity at 3.1 µM: test item 3.1 μM; for remaining activity at 12.5 µM: test item 12.5 μM; for remaining activity at 50 µM: test item 50 μM
NR1-2A NMDAR [6] = biological target: T4, NR1-2A NMDAR (Homo sapiens, UniProt Q05586+Q12879); assay: FLIPR Ca2+ assay, blocker concentration-response curve; type: cell-based; set-up: host or cells: CHO (CHO-hNR1-h2A), tetracycline-induced expression; details: for Slope: logistic fit of blocker CRC
From the text: as §1, §2, §3, §4

NR1-2A NMDAR [7] = biological target: T4, NR1-2A NMDAR; assay: cell-based; type: cell-based; set-up: host or cells: CHO (CHO-hNR1-h2A), tetracycline-induced expression; details: for remaining activity at 0.049 µM / remaining activity at 0.195 µM / remaining activity at 0.781 µM / remaining activity at 3.1 µM / remaining activity at 12.5 µM / remaining activity at 50 µM: read-out: L-glutamate Max. (maximal asymptote) in the presence of test item, GluN1/GluN2A; for remaining activity at 0.049 µM: test item 0.049 μM; for remaining activity at 0.195 µM: test item 0.195 μM; for remaining activity at 0.781 µM: test item 0.781 μM; for remaining activity at 3.1 µM: test item 3.1 μM; for remaining activity at 12.5 µM: test item 12.5 μM; for remaining activity at 50 µM: test item 50 μM
NR1-2B NMDAR [8] = biological target: T3, NR1-2B NMDAR; assay: FLIPR Ca2+ assay, blocker concentration-response curve; type: cell-based; set-up: host or cells: CHO (CHO-hNR1-h2B), constitutive expression; details: for Min. (%), minimal % Ca2+ influx in the presence of 100 μM blocker: 10 µM L-glutamate, no Mg2+; for Slope: logistic fit of blocker CRC
From the text: as §1, §2, §3, §4

NR1-2C NMDAR [9] = biological target: T1, NR1-2C NMDAR; assay: Whole-cell manual patch-clamp REL-1017 CRC in 1 mM MgCl2; details: 1 mM MgCl2, 1 μM L-glutamate, −60 mV
NR1-2A NMDAR [10] = biological target: T4, NR1-2A NMDAR; assay: Whole-cell automated patch-clamp (QPatch) in 1 mM Mg2+; type: cell-based; set-up: host or cells: CHO (CHO-hNR1-h2A), tetracycline-induced expression; details: 1 mM Mg2+
Procedure: Data were obtained in automated patch-clamp platform. […] Statistical results of one-way analysis of variance (ANOVA) followed by Tukey’s multiple comparisons test also reported p < 0.05 (*), p < 0.01 (**), p < 0.001 (***), and p < 0.0001 (****). Glu is glutamate.
For QPatch experiments, cells were grown in T-flasks first at 37 °C, 5% CO2 for 3 to 4 h, then at 30 °C, 5% CO2 for 18 to 24 h in DMEM/F12 medium with added 500 μM ketamine and 10 μg/mL tetracycline (except for NR1-2B-CHO cells) without additional antibiotics. Cells were manually detached from the culture dish and automatically dispensed in QPatch wells with extracellular solution in the presence of 1 mM Mg^2+ and 500 μM ketamine.
Holding potential was −80 mV, and voltage protocol included a depolarizing 2-s step pulse to +60 mV to check the quality of the seal and cell NMDAR expression level, followed by a 2-s ramp-up to holding potential.

T3 sequence (Q13224 27-1484, other chains not shown): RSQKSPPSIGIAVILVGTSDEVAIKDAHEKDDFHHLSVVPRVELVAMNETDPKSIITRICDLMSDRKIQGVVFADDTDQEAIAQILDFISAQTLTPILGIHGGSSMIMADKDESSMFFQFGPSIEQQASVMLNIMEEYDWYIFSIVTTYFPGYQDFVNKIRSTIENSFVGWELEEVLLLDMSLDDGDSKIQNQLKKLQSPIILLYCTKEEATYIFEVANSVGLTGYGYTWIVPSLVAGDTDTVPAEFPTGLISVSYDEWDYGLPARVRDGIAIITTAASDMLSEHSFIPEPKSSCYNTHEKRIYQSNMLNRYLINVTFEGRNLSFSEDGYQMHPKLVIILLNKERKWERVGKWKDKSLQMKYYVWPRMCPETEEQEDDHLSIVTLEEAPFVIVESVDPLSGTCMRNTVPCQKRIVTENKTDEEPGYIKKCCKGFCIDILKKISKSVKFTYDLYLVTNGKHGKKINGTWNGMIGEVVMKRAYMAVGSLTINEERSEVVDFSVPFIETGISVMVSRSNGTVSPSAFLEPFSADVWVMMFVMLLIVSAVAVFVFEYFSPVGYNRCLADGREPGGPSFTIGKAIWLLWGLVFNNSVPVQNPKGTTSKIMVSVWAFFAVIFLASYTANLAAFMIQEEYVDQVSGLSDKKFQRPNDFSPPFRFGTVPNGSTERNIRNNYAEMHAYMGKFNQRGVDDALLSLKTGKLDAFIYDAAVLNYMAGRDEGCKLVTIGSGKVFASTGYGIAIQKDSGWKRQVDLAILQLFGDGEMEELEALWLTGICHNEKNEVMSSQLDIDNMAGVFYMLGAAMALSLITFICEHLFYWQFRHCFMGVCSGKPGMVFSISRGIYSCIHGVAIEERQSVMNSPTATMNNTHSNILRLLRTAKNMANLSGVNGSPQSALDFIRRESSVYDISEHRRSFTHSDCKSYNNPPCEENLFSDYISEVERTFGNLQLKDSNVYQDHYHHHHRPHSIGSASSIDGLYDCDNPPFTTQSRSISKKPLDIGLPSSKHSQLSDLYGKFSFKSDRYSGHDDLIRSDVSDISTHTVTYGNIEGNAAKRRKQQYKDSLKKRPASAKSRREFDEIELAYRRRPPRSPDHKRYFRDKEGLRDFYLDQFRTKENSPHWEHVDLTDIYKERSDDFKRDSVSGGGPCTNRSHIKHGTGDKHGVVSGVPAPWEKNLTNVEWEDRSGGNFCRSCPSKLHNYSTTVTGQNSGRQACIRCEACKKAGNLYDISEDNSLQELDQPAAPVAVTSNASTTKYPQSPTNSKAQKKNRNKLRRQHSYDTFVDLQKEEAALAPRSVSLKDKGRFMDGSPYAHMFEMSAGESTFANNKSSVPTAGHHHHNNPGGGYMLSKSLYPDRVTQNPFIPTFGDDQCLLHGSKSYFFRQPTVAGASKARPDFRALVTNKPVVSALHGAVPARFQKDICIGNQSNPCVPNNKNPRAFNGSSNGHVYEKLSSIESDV
T2 sequence (O15399 28-1336, other chains not shown): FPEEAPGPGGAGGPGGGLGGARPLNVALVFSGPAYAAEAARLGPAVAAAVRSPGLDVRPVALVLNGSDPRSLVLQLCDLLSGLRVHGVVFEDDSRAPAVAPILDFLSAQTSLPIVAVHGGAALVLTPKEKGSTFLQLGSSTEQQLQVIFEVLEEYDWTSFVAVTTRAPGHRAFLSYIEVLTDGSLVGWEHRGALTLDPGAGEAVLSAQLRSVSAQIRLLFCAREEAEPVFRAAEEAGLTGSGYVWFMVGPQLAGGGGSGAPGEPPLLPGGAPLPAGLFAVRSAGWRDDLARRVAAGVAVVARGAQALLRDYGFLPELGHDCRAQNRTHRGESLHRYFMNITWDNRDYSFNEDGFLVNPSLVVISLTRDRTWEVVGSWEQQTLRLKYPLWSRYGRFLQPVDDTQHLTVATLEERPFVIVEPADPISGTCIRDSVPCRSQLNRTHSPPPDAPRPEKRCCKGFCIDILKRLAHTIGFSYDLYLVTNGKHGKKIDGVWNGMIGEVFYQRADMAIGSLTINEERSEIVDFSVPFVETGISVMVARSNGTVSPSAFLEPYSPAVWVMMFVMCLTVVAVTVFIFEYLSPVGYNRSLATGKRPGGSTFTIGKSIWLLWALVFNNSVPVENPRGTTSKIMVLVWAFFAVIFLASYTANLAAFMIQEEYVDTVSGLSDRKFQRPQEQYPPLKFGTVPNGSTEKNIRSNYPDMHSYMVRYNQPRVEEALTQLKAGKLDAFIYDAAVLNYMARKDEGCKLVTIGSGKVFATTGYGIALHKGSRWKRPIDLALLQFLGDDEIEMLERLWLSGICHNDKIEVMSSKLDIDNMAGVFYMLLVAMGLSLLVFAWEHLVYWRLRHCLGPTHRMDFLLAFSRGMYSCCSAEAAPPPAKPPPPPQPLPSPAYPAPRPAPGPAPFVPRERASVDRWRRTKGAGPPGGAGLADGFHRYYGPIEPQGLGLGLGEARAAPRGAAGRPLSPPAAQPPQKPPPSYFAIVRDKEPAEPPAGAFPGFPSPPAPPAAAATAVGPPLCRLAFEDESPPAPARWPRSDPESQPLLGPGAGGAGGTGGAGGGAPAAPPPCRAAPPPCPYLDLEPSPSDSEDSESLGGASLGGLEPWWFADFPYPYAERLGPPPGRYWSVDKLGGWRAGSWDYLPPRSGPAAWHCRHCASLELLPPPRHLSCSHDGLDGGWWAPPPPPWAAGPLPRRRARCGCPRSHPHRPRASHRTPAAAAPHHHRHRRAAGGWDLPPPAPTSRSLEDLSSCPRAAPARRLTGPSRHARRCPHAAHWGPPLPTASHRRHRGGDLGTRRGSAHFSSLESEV
T1 sequence (Q14957 20-1233, other chains not shown): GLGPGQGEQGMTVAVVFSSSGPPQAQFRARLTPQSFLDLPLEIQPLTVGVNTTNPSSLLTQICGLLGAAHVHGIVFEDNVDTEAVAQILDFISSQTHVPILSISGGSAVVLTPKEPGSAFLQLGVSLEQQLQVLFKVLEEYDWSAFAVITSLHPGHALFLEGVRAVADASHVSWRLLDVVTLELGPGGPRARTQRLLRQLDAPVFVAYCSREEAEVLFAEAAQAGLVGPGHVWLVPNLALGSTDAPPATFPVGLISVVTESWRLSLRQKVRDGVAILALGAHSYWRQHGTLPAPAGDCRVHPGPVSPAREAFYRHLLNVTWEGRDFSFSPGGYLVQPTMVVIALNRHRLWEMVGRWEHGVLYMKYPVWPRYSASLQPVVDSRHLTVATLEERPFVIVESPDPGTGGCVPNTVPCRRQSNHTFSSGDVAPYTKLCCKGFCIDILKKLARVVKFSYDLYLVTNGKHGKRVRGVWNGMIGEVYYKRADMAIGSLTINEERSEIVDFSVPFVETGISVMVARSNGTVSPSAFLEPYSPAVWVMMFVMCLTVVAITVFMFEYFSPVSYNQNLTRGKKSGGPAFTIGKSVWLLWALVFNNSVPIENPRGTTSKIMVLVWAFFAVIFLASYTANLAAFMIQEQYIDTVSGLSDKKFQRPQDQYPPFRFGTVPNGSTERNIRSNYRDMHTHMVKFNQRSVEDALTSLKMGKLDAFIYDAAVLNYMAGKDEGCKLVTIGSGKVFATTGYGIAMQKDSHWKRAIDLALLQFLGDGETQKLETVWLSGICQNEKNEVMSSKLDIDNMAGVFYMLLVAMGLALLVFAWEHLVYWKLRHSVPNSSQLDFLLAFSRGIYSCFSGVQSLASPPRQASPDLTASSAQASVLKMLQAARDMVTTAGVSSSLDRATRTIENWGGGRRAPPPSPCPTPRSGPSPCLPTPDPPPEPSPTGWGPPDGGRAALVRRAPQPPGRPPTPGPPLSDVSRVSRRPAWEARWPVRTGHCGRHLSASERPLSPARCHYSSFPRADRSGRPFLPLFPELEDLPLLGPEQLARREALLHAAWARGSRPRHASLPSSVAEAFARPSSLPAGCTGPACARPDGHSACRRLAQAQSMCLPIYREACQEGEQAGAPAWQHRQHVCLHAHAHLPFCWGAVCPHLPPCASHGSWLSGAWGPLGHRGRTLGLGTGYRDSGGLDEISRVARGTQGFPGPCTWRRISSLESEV

SMILES | remaining activity at 0.049 µM (NR1-2C NMDAR [1]) | remaining activity at 0.195 µM (NR1-2C NMDAR [1]) | remaining activity at 0.781 µM (NR1-2C NMDAR [1]) | remaining activity at 3.1 µM (NR1-2C NMDAR [1]) | remaining activity at 12.5 µM (NR1-2C NMDAR [1]) | remaining activity at 50 µM (NR1-2C NMDAR [1]) | Min. (%), minimal % Ca2+ influx in the presence of 100 μM blocker (NR1-2D NMDAR [2]) | Slope (NR1-2D NMDAR [2]) | remaining activity at 0.049 µM (NR1-2B NMDAR [3]) | remaining activity at 0.195 µM (NR1-2B NMDAR [3]) | remaining activity at 0.781 µM (NR1-2B NMDAR [3]) | remaining activity at 3.1 µM (NR1-2B NMDAR [3]) | remaining activity at 12.5 µM (NR1-2B NMDAR [3]) | remaining activity at 50 µM (NR1-2B NMDAR [3]) | Min. (%), minimal % Ca2+ influx in the presence of 100 μM blocker (NR1-2C NMDAR [4]) | Slope (NR1-2C NMDAR [4]) | remaining activity at 0.049 µM (NR1-2D NMDAR [5]) | remaining activity at 0.195 µM (NR1-2D NMDAR [5]) | remaining activity at 0.781 µM (NR1-2D NMDAR [5]) | remaining activity at 3.1 µM (NR1-2D NMDAR [5]) | further results
COc1ccc2c(c1)[C@]13CCCC[C@@H]1[C@H](C2)N(C)CC3 [Dextromethorphan, dextromethorphan] | 95% | 97% | 86% | 67% | 26% | 13% | 43% | −1.2 | 95% | 92% | 88% | 74% | 57% | 32% | 14% | −1.0 | 93% | 91% | 99% | 87% | Kb (NR1-2C NMDAR [1]; NR1-2C, operational equation for allosteric modulators, no Mg2+): 1.2 µM; Affinity Ratio (%) (NR1-2C NMDAR [1]; NR1-2C, reciprocal of KB, highest affinity subtype = 100%): 100%; Kb (NR1-2B NMDAR [3]; NR1-2B, operational equation for allosteric modulators, no Mg2+): 1.9 µM; Affinity Ratio (%) (NR1-2B NMDAR [3]; NR1-2B, reciprocal of KB, highest affinity subtype = 100%): 63%; Kb (NR1-2D NMDAR [5]; NR1-2D, operational equation for allosteric modulators, no Mg2+): 6.7 µM; Affinity Ratio (%) (NR1-2D NMDAR [5]; NR1-2D, reciprocal of KB, highest affinity subtype = 100%): 18%; remaining activity at 12.5 µM (NR1-2D NMDAR [5]): 59%; remaining activity at 50 µM (NR1-2D NMDAR [5]): 31%; Min. (%), minimal % Ca2+ influx in the presence of 100 μM blocker (NR1-2A NMDAR [6]; 100 μM blocker, 10 µM L-glutamate, no Mg2+): 35%; Slope (NR1-2A NMDAR [6]): −0.80; Kb (NR1-2A NMDAR [7]; NR1-2A, operational equation for allosteric modulators, no Mg2+): 9.6 µM; Affinity Ratio (%) (NR1-2A NMDAR [7]; NR1-2A, reciprocal of KB, highest affinity subtype = 100%): 13%; remaining activity at 0.049 µM (NR1-2A NMDAR [7]): 98%; remaining activity at 0.195 µM (NR1-2A NMDAR [7]): 92%; remaining activity at 0.781 µM (NR1-2A NMDAR [7]): 99%; remaining activity at 3.1 µM (NR1-2A NMDAR [7]): 88%; remaining activity at 12.5 µM (NR1-2A NMDAR [7]): 79%; remaining activity at 50 µM (NR1-2A NMDAR [7]): 44%; Min. (%), minimal % Ca2+ influx in the presence of 100 μM blocker (NR1-2B NMDAR [8]): 14%; Slope (NR1-2B NMDAR [8]): −0.89
CCC(=O)C(C[C@H](C)N(C)C)(c1ccccc1)c1ccccc1 [REL-1017, dextromethadone HCl] | 99% | 100% | 95% | 94% | 75% | 30% | 47% | −0.68 | 96% | 96% | 93% | 89% | 72% | 35% | 15% | −0.84 | 101% | 97% | 101% | 97% | Hill Slope (NR1-2C NMDAR [9]): 1.49; remaining activity at 12.5 µM (NR1-2D NMDAR [5]): 82%; remaining activity at 50 µM (NR1-2D NMDAR [5]): 41%; Slope (NR1-2A NMDAR [6]): −1.0; remaining activity at 0.049 µM (NR1-2A NMDAR [7]): 103%; remaining activity at 0.195 µM (NR1-2A NMDAR [7]): 98%; remaining activity at 0.781 µM (NR1-2A NMDAR [7]): 103%; remaining activity at 3.1 µM (NR1-2A NMDAR [7]): 98%; remaining activity at 12.5 µM (NR1-2A NMDAR [7]): 84%; remaining activity at 50 µM (NR1-2A NMDAR [7]): 35%; effect on L-glutamate-elicited current (NR1-2A NMDAR [10]; 10 μM REL-1017, 1 μM L-glutamate): inactive; effect on L-glutamate-elicited current (NR1-2A NMDAR [10]; 10 μM REL-1017, 10 μM L-glutamate, −30 mV to −80 mV): significantly reduced; Min. (%), minimal % Ca2+ influx in the presence of 100 μM blocker (NR1-2B NMDAR [8]): 14%; Slope (NR1-2B NMDAR [8]): −1.1
